15 molecules from patent EP0559700B1, “NOVEL PILOCARPINE DERIVATIVES AND PROCESS FOR THEIR PREPARATION” (Santen Oy, priority 1990, dated 1992) can be followed below.

SMILES strings stand for the structures.

Data set [1] in a line: Lipophilicity: partition coefficient (octanol-buffer) and capacity factor by RP-HPLC. The note with it: for chromatographic logP / Capacity factor (22°C) k': rp-hplc; for chromatographic logP: reverse phase HPLC, 22°C, read-out: Capacity factor (22°C) k' (converted). Type of data set: physicochemical. An excerpt:
The lipophilicity of the compounds were studied by determining the partition coefficients (P) of the compounds at a pH of 7.40. The measurements were made either in an octanol-buffer mixture by determining the concentration of the compound to be studied in the buffer phase by HPLC. The partition coefficients of the very lipophilic compounds were, however, determined by reverse phase (RP) liquid chromatography (HPLC) from the retention time (Beckmann 116 pump and 166 UV detector; Marathon autom. sample feeder). […] From the results it can be seen that the compounds of the invention are considerably more lipophilic than the pilocarpine.

Data set [2] is described as follows: Stability of the compounds: buffer hydrolysis (half-times, shelf-life). The format is physicochemical. As for the experimental part: The stability of the test compounds were tested with buffer hydrolyses. The ionic strength (µ) of the buffers was 0.5, the pH-values used 4.2, 6.0, 7.4 and 9.0 and the temperatures used 37°C, 50 °C, 60 °C and 70 °C.
The half-times T½ calculated on basis of the degradation constant k obtained for each studied compound (T½=0.693/k; k = 2.303 x kk, wherein kk is the angular coefficient of the plot which illustrates the logarithm of the remaining ester as a function of time) in a buffer solution of said pH, are indicated in the Table I below, which values refer to half-times at 37°C.
The storage stability of the derivatives under different storage conditions may be estimated by determining the degradation constants at different temperatures and calculating the degradation constant k at the desired temperature from the equation of the plot corresponding to the Arrhenius equation (1), wherein log k is given as a function of [1/T]. Log k = Log A -(Ea)/(2.303R)x(1)/(T) [formula]
From the degradation constant (k) obtained at the desired temperature the shelf-life-time t10% (t10% = 0.104/k) which indicates the time during which 10% of the drug has degraded may be calculated. By way of example it may be mentioned that the t10%-time of O,O'-dipropionyl (1,4-xylylene) bispilocarpate at 4 °C is almost 500 days.

Data set [3] can be described thus: pKa-value determination by titration in a water-ethanol mixture (50%-50%). Type of data set: physicochemical. To be noted: water-ethanol 50:50; titration in water-ethanol mixture (50%-50%).
The nature of data set [4]: Enzyme hydrolysis in plasma/buffer pH 7.4 mixture (80%-20%). The format is in vitro ADME. The note with it: for half-life: 80% plasma/buffer. The protocol:
The half-times of enzyme hydrolysis of the novel bispilocarpates according to the invention and of known pilocarpic acid diesters were determined in a plasma/buffer pH 7.4-mixture (80%-20%) at 37°C. The degradation constants (k) for the compounds tested and determined from the plot showing the logarithm of remaining diester as a function of time and the half-lives T½ are shown in the Table II below. From the results it may be seen that in […] the stable test compound degrades under the influence of an enzyme (esterase) to a O,O'-dihydrogen bispilocarpate intermediate, which spontaneously degrades at pH 7.40 to pilocarpine. Consequently the effect of the bispilocarpate intermediate on the rate of formation of pilocarpine is very significant. The formation of pilocarpine was almost complete irrespective of the epimerization possibility of the intermediate. The amount of isopilocarpine formed varied from 0 to 10%, as also the pilocarpine formed epimerized, if the duration of hydrolysis was very long.

The mark [5] stands for this setting: buffer pH 6.00, ionic strength 0.5, 37°C, read-out: Half-times in buffers at 37°C, T½, pH 6.00 (converted).
Setting [6] is: buffer pH 9.00, ionic strength 0.5, 37°C, read-out: Half-times in buffers at 37°C, T½, pH 9.00 (converted).
Where [7] appears, read: pH 4.2, buffer pH 4.20, ionic strength 0.5, 37°C, read-out: Half-times in buffers at 37°C, T½, pH 4.20 (converted).
Where [8] appears, read: pH 7.4, buffer pH 7.40, ionic strength 0.5, 37°C, read-out: Half-times in buffers at 37°C, T½, pH 7.40 (converted).
[9] abbreviates: determined from the equation log k'= 0.182 Log P - 0.4086 (RP-HPLC retention).
[10] abbreviates: plasma/buffer pH 7.4 (80%-20%), 37°C, read-out: half-times (T½) in plasma (80%), 37°C.
Setting [11] is: plasma/buffer pH 7.4 (80%-20%), 37°C.

As to `CC[C@H](C(=O)OCc1ccc(COC(=O)[C@@H](CC)[C@H](CO)Cc2cncn2C)cc1)[C@H](CO)Cc1cncn1C` [Example 1, O,O'-Dihydrogen (1,4-xylylene) bispilocarpate], in data set [1], the chromatographic logP was -0.0915. Further, the half-life is 2.28 h in data set [2] (setting [5]), 0.0317 h in data set [2] (setting [6]), 37.6 h in data set [2] (setting [7]) and 0.3 h in data set [2] (setting [8]). Also, the pKa in data set [3] came to 6.25.
For the molecule `CC[C@H](C(=O)OCc1cccc(COC(=O)[C@@H](CC)[C@H](CO)Cc2cncn2C)c1)[C@H](CO)Cc1cncn1C` [Example 2, O,O'-Dihydrogen (1,3-xylylene) bispilocarpate], in data set [1], the chromatographic logP was -0.0814. Moreover, the half-life in data set [2] (setting [5]) was 2.78 h; in data set [2] (setting [6]), 0.0183 h; in data set [2] (setting [7]) it was 48.8 h; in data set [2] (setting [8]), 0.317 h. The pKa in data set [3] was 6.3.
In the case of `CC[C@H](C(=O)OCc1ccccc1COC(=O)[C@@H](CC)[C@H](CO)Cc1cncn1C)[C@H](CO)Cc1cncn1C` [Example 3, O,O'-Dihydrogen (1,2-xylylene) bispilocarpate], in data set [1], the chromatographic logP is -0.0814. Moreover, the half-life in data set [2] (setting [5]) is 3.35 h; in data set [2] (setting [6]), 0.0233 h; in data set [2] (setting [7]), 20.2 h; in data set [2] (setting [8]), 0.417 h. In data set [3], the pKa worked out at 6.3.
Consider `CC[C@H](C(=O)OCCCCCCCOC(=O)[C@@H](CC)[C@H](CO)Cc1cncn1C)[C@H](CO)Cc1cncn1C` [Example 4, O,O'-Dihydrogen (1,7-heptylene) bispilocarpate], for which the chromatographic logP in data set [1] is 0.0518. For the same molecule, the half-life in data set [2] (setting [5]) was 29.9 h; in data set [2] (setting [6]) it was 0.3 h; in data set [2] (setting [7]), 81.8 h; in data set [2] (setting [8]), 3.35 h. For the same molecule, in data set [3], the pKa turned out to be 6.3.
For `CC[C@H](C(=O)OCCCCCCOC(=O)[C@@H](CC)[C@H](CO)Cc1cncn1C)[C@H](CO)Cc1cncn1C` [Example 5, O,O'-Dihydrogen (1,6-hexylene) bispilocarpate], the chromatographic logP in data set [1] was -0.0494. Moreover, the half-life was 25.1 h in data set [2] (setting [5]), 0.233 h in data set [2] (setting [6]), 62.6 h in data set [2] (setting [7]) and 2.5 h in data set [2] (setting [8]). Further, the pKa in data set [3] is 6.3.
For the molecule `CC[C@H](C(=O)OCCCCCOC(=O)[C@@H](CC)[C@H](CO)Cc1cncn1C)[C@H](CO)Cc1cncn1C` [Example 6, O,O'-Dihydrogen (1,5-pentylene) bispilocarpate], the chromatographic logP in data set [1] is -0.123. Further, the half-life in data set [2] (setting [5]) is 24.6 h; in data set [2] (setting [6]), 0.233 h; in data set [2] (setting [7]), 73 h; in data set [2] (setting [8]) it was 2.08 h. For the same molecule, the pKa in data set [3] is 6.3.
Take `CC[C@H](C(=O)OCCCCOC(=O)[C@@H](CC)[C@H](CO)Cc1cncn1C)[C@H](CO)Cc1cncn1C` [Example 7, O,O'-Dihydrogen (1,4-butylene) bispilocarpate]: the chromatographic logP in data set [1] was -0.182. Moreover, the half-life in data set [2] (setting [5]) was 18.9 h; in data set [2] (setting [6]), 0.167 h; in data set [2] (setting [7]) it was 120 h; in data set [2] (setting [8]), 2.63 h. In addition, the pKa in data set [3] was 6.35.
Regarding `CC[C@H](C(=O)OCCCOC(=O)[C@@H](CC)[C@H](CO)Cc1cncn1C)[C@H](CO)Cc1cncn1C` [Example 8, O,O' -Dihydrogen (1,3-propylene) bispilocarpate], the chromatographic logP in data set [1] is -0.212. In addition, the half-life is 10.3 h in data set [2] (setting [5]), 0.0667 h in data set [2] (setting [6]), 67.3 h in data set [2] (setting [7]) and 1.2 h in data set [2] (setting [8]). The pKa in data set [3] was 6.4.
In the case of `CC[C@H](C(=O)OCc1ccc(COC(=O)[C@@H](CC)[C@H](COC(=O)c2ccccc2)Cc2cncn2C)cc1)[C@H](COC(=O)c1ccccc1)Cc1cncn1C` [Example 14, O,O'-Dibenzoyl (1,4-xylylene) bispilocarpate], the “Partition coefficient log P” value in data set [1] (setting [9]) was 6.4929^2. The chromatographic logP in data set [1] was 0.773. The half-life was 1.57 h in data set [4] (setting [10]) and 8 h in data set [2] (setting [6]). Moreover, the “Degradation coefficient (k) in plasma (80%), 37°C” value in data set [4] (setting [11]) was determined as 0.00737 min⁻¹. Also, the pKa in data set [3] was 5.8.
`CC[C@H](C(=O)OCc1ccccc1)[C@H](COC(=O)CCCCC(=O)OC[C@H](Cc1cncn1C)[C@H](CC)C(=O)OCc1ccccc1)Cc1cncn1C` [Example 15, O,O'-Adipoyl (dibenzyl) bispilocarpate]: in data set [1] (pH 7.4), the “Partition coefficient log P” value was 5.8242^2. Moreover, in data set [1], the “Capacity factor (22°C) k'” value was determined as 4.4810. In data set [1], the chromatographic logP was 0.651. The half-life was 0.467 h in data set [4] (pH 7.4); 3140 h in data set [2] (buffer, pH 4.2); 1650 h in data set [2] (buffer, pH 6); 655 h in data set [2] (buffer, pH 7.4); 70 h in data set [2] (buffer, pH 9). In data set [4] (pH 7.4), the “Degradation coefficient (k) in plasma (80%), 37°C” value came out at 0.02487 min⁻¹. Besides, in data set [3], the pKa was 6.
Turning to `CC[C@H](C(=O)OCc1ccccc1)[C@H](COC(=O)CCCC(=O)OC[C@H](Cc1cncn1C)[C@H](CC)C(=O)OCc1ccccc1)Cc1cncn1C` [Example 16, O,O'-Glutaryl (dibenzyl) bispilocarpate], the “Partition coefficient log P” value in data set [1] (setting [9]) is given as 5.4093^2. The chromatographic logP in data set [1] is 0.576. The half-life was 0.233 h in data set [4] (pH 7.4); 2200 h in data set [2] (setting [5]); 43 h in data set [2] (setting [6]); 4190 h in data set [2] (setting [7]); 757 h in data set [2] (setting [8]). In addition, the “Degradation coefficient (k) in plasma (80%), 37°C” value in data set [4] (pH 7.4) stood at 0.05044 min⁻¹. Also, in data set [3], the pKa was 6.
On to `CC[C@H](C(=O)OCc1ccccc1)[C@H](COC(=O)CCC(=O)OC[C@H](Cc1cncn1C)[C@H](CC)C(=O)OCc1ccccc1)Cc1cncn1C` [Example 17, O,O'-Succinyl (dibenzyl) bispilocarpate], for which, in data set [1] (pH 7.4), the “Partition coefficient log P” value is reported as 5.2038^2. Further, the “Capacity factor (22°C) k'” value in data set [1] amounted to 3.4557. Besides, the chromatographic logP in data set [1] was 0.539. Besides, the half-life in data set [4] (pH 7.4) is 3.13 h; in data set [2] (buffer, pH 4.2), 4760 h; in data set [2] (buffer, pH 6), 2550 h; in data set [2] (buffer, pH 7.4) it was 251 h; in data set [2] (buffer, pH 9) it was 28 h. Also, the “Degradation coefficient (k) in plasma (80%), 37°C” value in data set [4] (pH 7.4) was found to be 0.00368 min⁻¹. Moreover, the pKa in data set [3] was 6.
Turning to `CC[C@H](C(=O)OCc1ccccc1)[C@H](COC(=O)/C=C/C(=O)OC[C@H](Cc1cncn1C)[C@H](CC)C(=O)OCc1ccccc1)Cc1cncn1C` [Example 18, O,O'-Fumaroyl (dibenzyl) bispilocarpate], the “Partition coefficient log P” value in data set [1] (pH 7.4) was 5.7137^2. Moreover, the “Capacity factor (22°C) k'” value in data set [1] is given as 4.2785. For the same molecule, the chromatographic logP in data set [1] was 0.631. The half-life is 2.78 h in data set [4] (pH 7.4); 834 h in data set [2] (buffer, pH 4.2); 49 h in data set [2] (buffer, pH 6); 6 h in data set [2] (buffer, pH 7.4); 0.4 h in data set [2] (buffer, pH 9). Further, the “Degradation coefficient (k) in plasma (80%), 37°C” value in data set [4] (pH 7.4) stood at 0.00415 min⁻¹. Besides, the pKa in data set [3] is 6.05.
For the molecule `CCCCCCCC(=O)OC[C@H](Cc1cncn1C)[C@H](CC)C(=O)OCc1ccccc1` [octanoyl, benzyl, reference compound], the half-life in data set [4] (setting [10]) came to 0.45 h. In addition, the “Degradation coefficient (k) in plasma (80%), 37°C” value in data set [4] (setting [11]) came to 0.02556 min⁻¹.
As for `CC[C@H](C(=O)OCc1ccccc1)[C@H](CO)Cc1cncn1C` [pilocarpic acid benzyl ester], in data set [1], the chromatographic logP was -0.116. Besides, the pKa in data set [3] was 6.5.

Usually pKa stands for the pH at which an ionisable group is half protonated.
